Entries after “also recorded” stand apart in the source; their conditions may differ.
Experiments:
HIV-1 = HIV-1 replication in PHA/IL-2-stimulated peripheral blood mononuclear cells (p24 ELISA); assay type: cell-based, human; conditions: 4 days after inoculation
Procedure: FIG. 13 depicts data showing that n-docosanol inhibits in vitro replication of HIV-1 in cultures of PHA/IL-2-stimulated human peripheral blood mononuclear cells. Human peripheral blood mononuclear cells were cultured in medium containing 1 μg/ml PHA plus 5 units/ml IL-2 alone or also containing 100 μg/ml PFA, the indicated dosage of n-docosanol/Pluronic F68, or the amount of Pluronic F-68 control vehicle contained in the high dose of n-docosanol/Pluronic F-68. After overnight incubation, the cultures were inoculated with HIV-1 at a multiplicity of infection of 1 virion/cell. After 24 hours incubation at 37° C., the cultures were washed and inoculated with fresh medium containing PHA and IL-2, but lacking inhibitor. Replication of HIV-1 was determined 4 days later by quantitation of viral antigens by a p24-specific ELISA for HIV-1.
The initial studies on HIV were conducted in collaboration with a U.S. National Institutes of Health Laboratory and one of several experiments of this type is summarized in FIG. 13. Normal human peripheral blood mononuclear cells were activated with 1 μg/ml PHA plus 5 units/ml of IL-2 in medium alone or in the presence of n-docosanol, Pluronic […] control vehicle, or phosphonformic acid (PFA). The next day, the cultures were inoculated with HIV-1 and examined 4 days later for evidence of viral replication by detection of the p24 viral antigen.

HSV-1 = HSV-1 plaque assay in Vero cells, time of drug incubation and removal; assay type: cell-based; conditions: 9 mM
Procedure: (A) Vero cells were plated and incubated with 9 mM n-docosanol, the corresponding control vehicle or no addition for 0, 3, 6, or 24 h prior to the addition of HSV-1. The viral plaque assay was continued and the number of p.f.u. determined. The data are expressed as % inhibition compared to wells receiving no treatment. (B) Vero cells were plated, n-docosanol or the corresponding control vehicle was added and cells were incubated at 37° C. in 10% humidified CO2. After 21, 24, 25, 26, and 27 h (6, 3, 2, 1, and 0 h before the addition of HSV-1), media containing drug was removed and the cells were washed with media. After a total of 27 h, HSV-1 was added to all wells. Two hours later virus-containing media was removed and replaced with fresh media lacking virus or drugs. The cultures were incubated and processed for determination of the number of HSV-induced plaques as in (A). […]
The cultures were incubated for an additional 42-44 h, washed once with fresh medium, stained and fixed (the staining/fixative consists of 1.25 mg/ml of carbol-fuchsin plus 2.5 mg/ml of methylene blue in methanol) and then scored for HSV-induced plaques using a dissecting microscope (10× magnification). […]

Vero cells = test: Cellular uptake, distribution and metabolism of radiolabeled n-docosanol; assay type: in vitro ADME, African Green monkey
Procedure: FIG. 10 depicts data showing that radioactive metabolites of n-[^14C]docosanol display the properties of phosphatidylcholine and phosphatidylethanolamine. A portion (0.5 ml) of the methanol eluate of the silica lipid fractionation was evaporated under nitrogen, resuspended in 20 μl chloroform:methanol (3:2; v:v) and spotted on a silica thin layer chromatography (TLC) sheet. After development with chloroform:methanol:acetic acid:water (60:50:1:4; v:v:v:v), the positions of standards were determined by staining with iodine vapors and the cpm per fraction determined by scintillation spectrometry after cutting the plastic-backed sheet into 5 mm strips.
FIG. 11 depicts data showing that n-[^14C]-Docosanol is metabolized more by Vero cells than by MDBK cells. Vero or MDBK cells were plated as described. n-[^14C]-docosanol was added to […] (0.24 mM Tetronic 908) and the cultures were incubated 72 hours at 37° C./CO2. Cells were extracted and analyzed on TLC with hexane:diethyl ether:acetic acid (20:30:1; v:vv) as the developing solvent. With this solvent system the polar phosphatides remain at the origin. The position of migration of n-[^14C]-docosanol is indicated. Duplicate plates were treated with an identical suspension lacking the radioactive label, and the numbers of cells in these duplicate plates were determined by counting cells excluding trypan blue with a hemocytometer.
In order to better define the precise mechanism by which n-docosanol exerts its antiviral activity, the cellular uptake, distribution, and metabolism of n-docosanol from surfactant-stabilized suspensions has been studied. The results of such studies have provided some interesting insight into the metabolic basis of the compound's antiviral action. It has been shown that radioactively labeled n-docosanol is progressively incorporated into cultured Vero cells, reaching a peak uptake per cell between 6 and 12 hours after exposure. The process is irreversible, since once the compound is cell-associated it cannot be removed even with extensive washing with cesium bromide, which effectively removes nonspecifically associated cell-bound particles.
Nonmetabolized n-docosanol was previously eluted from the silica with chloroform. As shown, approximately 62% of the counts migrated in the region of phosphatidylcholine and 38% migrated in the region of phosphatidylethanolamine.
Of the counts that are metabolized in two cells lines, the relative amounts in the major classes of phosphatides that are formed, phosphatidylcholine and phosphatidylethanolamine, are not different in the two cell lines.

HSV = test: Direct viricidal activity (virus mixed with suspension, infectivity recovered)
Procedure: Extensive studies designed to delineate the mechanism by which n-docosanol exerts its antiviral activity were conducted. The collective implications of the results of the studies are that the compound appears to interfere with one or more of the common pathways of viral entry into the cell and migration to the nucleus of infected target cells.
Instead, the drug apparently modifies the target cell in a manner that inhibits viral replication.

[1] = saturating concentrations, within 24 hours

Compound: CCCCCCCCCCCCCCCCCCCCCCO [n-docosanol]
- inhibitory activity against HIV-1 (p24 viral antigen) (HIV-1): dose-related inhibitory activity; also recorded: comparable to that observed with the very potent antiviral compound, phosphonoformic acid (PFA)
- inhibition of plaque formation (HSV-1; 6-h interval between drug removal and HSV-I addition): no inhibition of HSV-I plaque formation was observed
- inhibition at 9000 µM (HSV-1; Human alphaherpesvirus 1, Vero, added simultaneously with, or 3 h prior to virus addition, read-out: inhibition of plaque formation): 28%
- total uptake and relative metabolic conversion, Vero versus MDBK cells (Vero cells): 3-4 times higher
- radioactive compound associated with nuclear fractions (Vero cells; after 12 hours of exposure): less than 1%
- radioactive compound contained in cell membranes (Vero cells; after 12 hours of exposure): 75%
- molecules of n-docosanol added to culture that enter the cell (Vero cells; radiolabeled n-docosanol): less than 1 out of 1000
- cell-associated amount (Vero cells; [1]): ~8×10^9 molecules per cell
- fraction of total n-docosanol added that becomes cell-associated (Vero cells; [1]): less than 1%
- direct viricidal activity (HSV): no direct viricidal activity; also recorded: does not directly inactivate virus

— patent US20040033982A1, “Viral inhibition by n-docosanol” (priority 2001, published 2004)
